# Reference: paper PMC8778445, “HPLC-MS Profiling, Antioxidant, Antimicrobial, Antidiabetic, and Cytotoxicity Activities of Arthrocnemum indicum (Willd.) Moq. Extracts” (Plants, 2022)
# Molecular target: T1, Intestinal Alpha-glucosidase type I (α-glucosidase)
# T1 construct: gene MAL12; commercial enzyme (Sigma-Aldrich), no catalogue number
# Assay: alpha-glucosidase inhibition assay
# Type: biochemical
# Conditions: positive control; 4-nitrophenyl β-d-glucopyranoside listed among reagents (beta anomer as printed); pH, temperature not given
# Excerpt: alpha-glucosidase inhibition assay on Intestinal Alpha-glucosidase type I (α-glucosidase)
compound,measurement,value
C[C@H]1O[C@H](O[C@H]2[C@H](O)[C@@H](O)[C@@H](O[C@H]3[C@H](O)[C@@H](O)C(O)O[C@@H]3CO)O[C@@H]2CO)[C@H](O)[C@@H](O)[C@@H]1N[C@H]1C=C(CO)[C@@H](O)[C@H](O)[C@H]1O (stereo partly shown) [acarbose],α-Glucosidase (IC50 mg/mL),1.12 ± 0.08 mg/mL
